Laboratory results as given in patent publication US20240016834A1, “ANTIMICROBIAL AGENT COMPOSITION AND MANUFACTURING METHOD AND PRODUCT THEREOF” (priority 2020, published 2024).

How the values were obtained:
[1] = tested on: Salmonella Typhimurium ATCC 14028; assay: In vitro antibacterial power test (KFDA guidelines for external disinfectants), 5 minutes contact; format: cell-based; details: inoculum 1.1 × 10^3 CFU/mL
Text: (§1) The <Table 1> below is based on the official test report of a test that was requested to and performed by the Korea Analytical Testing Research Institute as a test institution. […] In this case, an inhibition rate (%) of the test result is as follows: Inhibition Rate (%)=(Number of Bacteria in Control Group−Number of Bacteria in Sample Group)/Number of Bacteria in Control Group.

[2] = tested on: Escherichia coli (E. coli) ATCC 8739; assay: as above; format: cell-based; details: inoculum 1.3 × 10^3 CFU/mL
Text: as §1

[3] = tested on: Staphylococcus aureus ATCC 6538; assay: as above; format: cell-based; details: inoculum 1.0 × 10^3 CFU/mL
Text: as §1

[4] = tested on: Infectious bronchitis (corona virus); assay: Administration test to broiler chicken 2 (farm); format: in vivo, broiler chicken (Ross); details: antibiotic administered before the Impact treatment
Protocol: In the second test, referring to <Table 3> in the below, infectious bronchitis (corona virus) occurred among 24,000 of Ross breeds at the age of 20 days at the broiler chicken consignment farm mentioned above. […] For the test, the product of the present invention was fed at the recommended dosage and was administered in the same way for 3 days.

Q: Which “Inhibition rate (%) of number of viable cells after 5 minutes [Antibacterial power]” value (shortened to “Inhibition rate (%)”) [1] does the source give for `CC1(C)S[C@@H]2[C@H](NC(=O)[C@H](N)c3ccccc3)C(=O)N2[C@H]1C(=O)O` [Ampicillin 100, ampicillin] here?
A: Its value is “(98.6%)”.

Q: And the “number of viable cells after 5 minutes” value ([1]; control group 1.6 × 10^3)?
A: The value was 2.1 × 10^1 CFU/mL.

Q: And the “Inhibition rate (%)” value [2]?
A: The value was “(99.9%)”.

Q: What about the “Inhibition rate (%)” value [3] of the same molecule?
A: The value was “(94.6%)”.

Q: What about the “number of viable cells after 5 minutes” value ([3]; control group 1.5 × 10^3) of the same molecule?
A: Its value is 8.1 × 10^1 CFU/mL.

Q: And the respiratory symptoms [4]?
A: The respiratory symptoms was “symptoms persisted”.
